According to patent publication US20240417410A1, “TRICYCLIC COMPOUNDS FOR THE TREATMENT OF CANCER” (Hoffmann-La Roche Inc., priority 2023, published 2024):

Experiments:
AGS cells (KRAS G12D) = assay: Cell viability assay (Cell Counting Kit-8, 3-day); assay type: cell-based, human; settings: 72 hrs incubation
How it was run: (§1)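 Seed NCI-H358 5,000/well, AGS and SW620 2,000/well; overnight. Compound, 0.5% DMSO final, 72 hrs. CCK-8 2 hrs, OD450–OD650. IC50: 4-parameter fit.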

[1] = tested on: NCI-H358 cells (KRAS G12C); assay: Cell viability assay (Cell Counting Kit-8, 3-day); assay type: cell-based, human; settings: NCI-H358, 72 hrs incubation
How it was run: as §1

SW620 cells (KRAS G12V) = assay: Cell viability assay (Cell Counting Kit-8, 3-day); assay type: cell-based, human; settings: SW620, 72 hrs incubation
How it was run: as §1

KRAS G12C-BRAF complex = KRAS G12C-BRAF complex (Homo sapiens (Human), UniProt P01116+P62937, G12C); assay: KRAS-BRAF with CYPA (500 nM) interaction assay (TR-FRET, Example 136); assay type: biochemical; settings: KRAS G12C-BRAF disruption
[2] = tested on: phosphorylation of ERK, KRAS G12C in NCI-H358 cells; assay: pERK inhibition assay; assay type: cell-based
How it was run: (§2)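 NCI-H358 (KRAS G12C), AGS (G12D) and SW620 (G12V) cells plated overnight, then treated with compound for 4 h in 0.5% DMSO. After fixing and methanol permeabilisation, phospho-ERK was detected by in-cell ELISA (HRP/TMB, OD450). IC50 from a 4-parameter sigmoidal fit.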

[3] = tested on: phosphorylation of ERK, KRAS G12D in AGS cells; assay: pERK inhibition assay; assay type: cell-based
How it was run: as §2

[4] = tested on: phosphorylation of ERK, KRAS G12V in SW620; assay: pERK inhibition assay; assay type: cell-based; settings: SW620 cells
How it was run: as §2

Chain of KRAS G12C-BRAF complex (P01116-2 other isoform, or with tags, fused parts or gaps G12C): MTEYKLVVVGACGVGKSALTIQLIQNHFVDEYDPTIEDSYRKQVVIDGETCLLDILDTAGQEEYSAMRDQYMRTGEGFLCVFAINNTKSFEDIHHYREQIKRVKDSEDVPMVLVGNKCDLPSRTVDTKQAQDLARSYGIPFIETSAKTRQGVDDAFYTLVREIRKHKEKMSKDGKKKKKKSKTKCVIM
Chain of KRAS G12C-BRAF complex (P62937 whole entry): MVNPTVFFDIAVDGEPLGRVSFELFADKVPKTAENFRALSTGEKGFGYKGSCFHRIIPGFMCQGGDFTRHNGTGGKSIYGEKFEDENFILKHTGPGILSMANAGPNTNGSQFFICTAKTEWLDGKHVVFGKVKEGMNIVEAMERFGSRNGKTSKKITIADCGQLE

Row | SMILES | IC50 (AGS cells (KRAS G12D); Homo sapiens, 72 h) [nM] | IC50 ([1]; Homo sapiens, NCI-H358, 72 h) [nM] | IC50 (SW620 cells (KRAS G12V); Homo sapiens, SW-620) [nM] | IC50 (KRAS G12C-BRAF complex) [nM] | IC50 ([2]; Homo sapiens, NCI-H358, 4 h) [nM] | IC50 ([3]; Homo sapiens, AGS, 4 h) [nM] | IC50 ([4]; Homo sapiens, SW-620, 4 h) [nM] | IC50 (AGS cells (KRAS G12D)) [nM] | IC50 [1] [nM] | IC50 (SW620 cells (KRAS G12V)) [nM] | IC50 ([2]; 4 hours) [nM] | IC50 ([3]; 4 hours) [nM] | IC50 ([4]; 4 hours) [nM]
1 | CO[C@@H](C)c1ncc(N2CCN(C)CC2)cc1-c1c2c3cc(cc4c3n1CCO4)-c1csc(n1)C[C@H](NC(=O)[C@H]1C[C@@H]1c1ccccc1)C(=O)N1CCC[C@H](N1)C(=O)OCC(C)(C)C2 (atropisomer, axis not shown; (M)) [Example 51, (1S,2S)-N-[(7S,13S)-(20M)-20-[2-[(1S)-1-methoxyethyl]-5-(4-methylpiperazin-1-yl)-3-pyridyl]-17,17-dimethyl-8,14-dioxo-15,24-dioxa-4-thia-9,21,30,31-tetrazahexacyclo[23.3.1.1^2,5.1^9,13.0^19,27.0^21,26]hentriaconta-1 (29),2,5 (31), 19,25,27-hexaen-7-yl]-2-phenyl-cyclopropanecarboxamide] | 13.3 | 5.9 | 1.4 | 21.1 | 1 | 4.8 | 0.7 | – | – | – | – | – | –
2 | CO[C@@H](C)c1ncc(N2CCN(C)CC2)cc1-c1c2c3cc(cc4c3n1CCO4)-c1csc(n1)C[C@H](NC(=O)[C@H]1C[C@@H]1c1cncnc1)C(=O)N1CCC[C@H](N1)C(=O)OCC(C)(C)C2 (atropisomer, axis not shown; (M)) [Example 93, (1S,2S)-N-[(7S,13S)-(20M)-20-[2-[(1S)-1-methoxyethyl]-5-(4-methylpiperazin-1-yl)-3-pyridyl]-17,17-dimethyl-8,14-dioxo-15,24-dioxa-4-thia-9,21,30,31-tetrazahexacyclo[23.3.1.1^2,5.1^9,13.0^19,27.0^21,26]hentriaconta-1 (28),2,5 (31), 19,25 (29),26-hexaen-7-yl]-2-pyrimidin-5-yl-cyclopropanecarboxamide] | 5 | 3 | 1 | 14.8 | 1.2 | 3.5 | 1.2 | – | – | – | – | – | –
3 | CO[C@@H](C)c1ncc(N2CCOCC2)cc1-c1c2c3cc(cc4c3n1CCO4)-c1csc(n1)C[C@H](NC(=O)[C@H]1C[C@@H]1C(F)F)C(=O)N1CCC[C@H](N1)C(=O)OCC(C)(C)C2 (atropisomer, axis not shown; (M)) [Example 9, (1S,2S)-2-(difluoromethyl)-N-[(7S,13S)-(20M)-20-[2-[(1S)-1-methoxyethyl]-5-morpholino-3-pyridyl]-17,17-dimethyl-8,14-dioxo-15,24-dioxa-4-thia-9,21,30,31-tetrazahexacyclo[23.3.1.1^2,5.1^9,13.0^19,27.0^21,26]hentriaconta-1 (28),2,5 (31), 19,25 (29),26-hexaen-7-yl]cyclopropanecarboxamide] | 7.6 | 2.8 | < 0.6 | 21.1 | 2.3 | 1.8 | 0.8 | – | – | – | – | – | –
4 | CO[C@@H](C)c1ncc(N2CCOCC2)cc1-c1c2c3cc(cc4c3n1CCO4)-c1csc(n1)C[C@H](NC(=O)[C@H]1[C@@H]3COC[C@@H]31)C(=O)N1CCC[C@H](N1)C(=O)OCC(C)(C)C2 (atropisomer, axis not shown; (M)) [Example 10, (1S,5R,6r)-N-[(7S,13S)-(20M)-20-[2-[(1S)-1-methoxyethyl]-5-morpholino-3-pyridyl]-17,17-dimethyl-8,14-dioxo-15,24-dioxa-4-thia-9,21,30,31-tetrazahexacyclo[23.3.1.1^2,5.1^9,13.0^19,27.0^21,26]hentriaconta-1 (28),2,5 (31), 19,25 (29),26-hexaen-7-yl]-3-oxabicyclo[3.1.0]hexane-6-carboxamide] | 4.6 | 2.2 | < 0.6 | 5.9 | 3.3 | 1.4 | 1.2 | – | – | – | – | – | –
5 | COC(C)c1ncc(N2CCN(C)CC2)cc1-c1c2c3cc(cc4c3n1CCO4)-c1csc(n1)CC(NC(=O)C1CC1C)C(=O)N1CCCC(N1)C(=O)OCC(C)(C)C2 [Example 17, (1S,2S)-N-[(7S,13S)-(20M)-20-[2-[(1S)-1-methoxyethyl]-5-(4-methylpiperazin-1-yl)-3-pyridyl]-17,17-dimethyl-8,14-dioxo-15,24-dioxa-4-thia-9,21,30,31-tetrazahexacyclo[23.3.1.1^2,5.1^9,13.0^19,27.0^21,26]hentriaconta-1 (28),2,5 (31),19,25 (29),26-hexaen-7-yl]-2-methyl-cyclopropanecarboxamide] | – | – | – | 25.4 | – | – | – | 21.7 | 10.3 | 1.1 | 2.9 | 2.7 | 1.8
6 | CO[C@@H](C)c1ncc(N2CCN(CC(F)(F)F)CC2)cc1-c1c2c3cc(cc4c3n1CCC4)-c1csc(n1)C[C@H](NC(=O)[C@H]1C[C@@H]1C(F)F)C(=O)N1CCC[C@H](N1)C(=O)OCC(C)(C)C2 (atropisomer, axis not shown; (M)) [Example 21, (1S,2S)-2-(difluoromethyl)-N-[(7S,13S)-(20M)-20-[2-[(1S)-1-methoxyethyl]-5-[4-(2,2,2-trifluoroethyl)piperazin-1-yl]-3-pyridyl]-17,17-dimethyl-8,14-dioxo-15-oxa-4-thia-9,21,30,31-tetrazahexacyclo[23.3.1.1^2,5.1^9,13.0^19,27.0^21,26]hentriaconta-1 (28),2,5 (31),19,25 (29),26-hexaen-7-yl]cyclopropanecarboxamide] | 56.2 | 15.3 | 1.9 | 15 | 2.1 | 8.8 | 1.4 | – | – | – | – | – | –
7 | CO[C@@H](C)c1ncc(N2CCOCC2)cc1-c1c2c3cc(cc4c3n1CCC4)-c1csc(n1)C[C@H](NC(=O)[C@H]1C[C@@H]1C(F)F)C(=O)N1CCC[C@H](N1)C(=O)OCC(C)(C)C2 (atropisomer, axis not shown; (M)) [Example 6, (1S,2S)-2-(difluoromethyl)-N-[(7S,13S)-(20M)-20-[2-[(1S)-1-methoxyethyl]-5-morpholino-3-pyridyl]-17,17-dimethyl-8,14-dioxo-15-oxa-4-thia-9,21,30,31-tetrazahexacyclo[23.3.1.1^2,5.1^9,13.0^19,27.0^21,26]hentriaconta-1 (28),2,5 (31), 19,25 (29),26-hexaen-7-yl]cyclopropanecarboxamide] | 19.4 | 3 | 1.6 | 11.1 | 1.4 | 5.6 | 0.8 | – | – | – | – | – | –
8 | CO[C@@H](C)c1ncc(N2CCN(C)CC2)cc1-c1c2c3cc(cc4c3n1CCC4)-c1csc(n1)C[C@H](NC(=O)[C@@H]1[C@@H]3COC[C@@H]31)C(=O)N1CCC[C@H](N1)C(=O)OCC(C)(C)C2 (atropisomer, axis not shown; (M)) [Example 42, (1R,5S,6s)-N-[(7S,13S)-(20M)-20-[2-[(1S)-1-methoxyethyl]-5-(4-methylpiperazin-1-yl)-3-pyridyl]-17,17-dimethyl-8,14-dioxo-15-oxa-4-thia-9,21,30,31-tetrazahexacyclo[23.3.1.1^2,5.1^9,13.0^19,27.0^21,26]hentriaconta-1 (28),2,5 (31), 19,25 (29),26-hexaen-7-yl]-3-oxabicyclo[3.1.0]hexane-6-carboxamide] | 22.4 | 5.4 | 1.3 | 20.5 | 0.9 | 8.1 | 1.4 | – | – | – | – | – | –
